Source: patent US20070149457A1, “Stable solid forms of enterostatin” (priority 2005, published 2007)

What was measured:
[1] = Humidity stress experiments at 58% relative humidity; format: physicochemical; conditions: for Observations after humidity stress: 58% RH; for Physical state after humidity stress: 58% relative humidity for 4 or 10 days
Text: A sample of this enterostatin acetate, 1-hydroxy-2-naphthoic acid co-complex of the invention was stressed at 58% relative humidity for 4 or 10 days.
A sample of this enterostatin chloride, 1-hydroxy-2-naphthoic acid co-complex of the invention was stressed at 58% relative humidity for 4 or 10 days.
A sample of each co-complex of the above examples was stressed at 58% relative humidity for either 4 or 10 days.
The cocrystal guests piperazine and 1-OH-2-napthoic acid were stressed at 58% relative humidity.

[2] = Moisture balance (weight change with relative humidity); format: physicochemical
Protocol: Analytical techniques discussed below were conventional unless otherwise specified. In particular, differential scanning calorimetry and moisture balance experiments were carried out according to standard techniques. NMR was in D2O.
FIG. 3 provides moisture balance of this enterostatin acetate, 1-hydroxy-2-naphthoic acid co-complex of the invention.

Compound	Observations after humidity stress ([1]; 14 days)	Observations after humidity stress ([1]; 4 days)	Physical state after humidity stress [1]	Observations after humidity stress ([1]; 10 days)	also measured
O=C(O)c1ccc2ccccc2c1O [1-OH-2-napthoic acid, reference compound]	Light brown chunks	–	–	–	Observations after humidity stress ([1]; 14 days, listed as 1-OH-2-napthoic): remained a solid
C1CNCCN1 [Piperazine, reference compound]	Oil puddle	–	–	–	Observations after humidity stress ([1]; 5 days): Oil puddle
Enterostatin Acetate, 1-Hydroxy-2-naphthoic Acid [Example 2]	–	Bits, broken glass	remained solid	–	weight gain (moisture balance) ([2]; from 5 to 95% relative humidity): 22%; weight loss (moisture balance) ([2]; from 95 to 5% relative humidity): 24%
Enterostatin Chloride, 1-Hydroxy-2-naphthoic Acid [Example 3]	–	Irregulars, chunks	remained solid	–	–
Enterostatin Chloride, Camphoric Acid [Example 5]	–	–	–	Deliquesced	–
Enterostatin Sulfate, Hippuric Acid [Example 7]	–	–	–	Tacky white goo	–
